Measured values as given in patent US20230174608A1, “Polypeptide Derivative Having Dual Receptor Agonistic Action and Use Thereof” (TIANJIN INSTITUTE OF PHARMACEUTICAL RESEARCH CO., LTD., priority 2020, published 2023).
*1 amine or outer side, *2 acyl side, *3 side chain or, on linkers, in order; H or OH if unused. Where a SMILES comes first, the peptide text is derived from it. Side-chain parts run from the residue outwards. [ ]: non-standard residue; d: D form. The star is where a group is joined. C18 diacid = O=C(O)CCCCCCCCCCCCCCCCC(=O)*; γGlu = O=C(O)[C@H](CCC(=O)[*:2])N[*:1]; Palmitoyl = CCCCCCCCCCCCCCCC(=O)*; AEEA = NCCOCCOCC(=O)O; Aib = CC(C)(N)C(=O)O

Columns and labels:
[1] = target: T1, GCGR (Homo sapiens, UniProt P47871); assay: GC receptor-mediated cAMP production in vitro; type: cell-based; details: HEK293 cell line stably expressing GCGR
T1 construct: expressed in transfected cells
T1 sequence (P47871 26-477, species assumed): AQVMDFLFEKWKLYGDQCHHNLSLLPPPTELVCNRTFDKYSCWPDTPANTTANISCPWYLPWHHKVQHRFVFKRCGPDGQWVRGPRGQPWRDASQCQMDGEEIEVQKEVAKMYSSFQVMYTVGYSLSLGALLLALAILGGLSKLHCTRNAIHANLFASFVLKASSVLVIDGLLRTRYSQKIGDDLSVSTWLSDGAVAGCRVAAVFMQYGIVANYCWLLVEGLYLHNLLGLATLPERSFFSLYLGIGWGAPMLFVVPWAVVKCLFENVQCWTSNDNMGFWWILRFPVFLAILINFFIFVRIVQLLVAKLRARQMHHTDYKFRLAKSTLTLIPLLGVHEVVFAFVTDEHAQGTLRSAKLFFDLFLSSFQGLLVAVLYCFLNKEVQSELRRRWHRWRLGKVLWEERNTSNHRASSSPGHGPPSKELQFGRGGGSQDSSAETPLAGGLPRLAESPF
Method: (§1) HEK293 cell line stably expressing GLP-1R or GCGR was used for screening GLP-1R and GCGR agonist.
(§2) Preparation of test sample: each compound was prepared into 100 μM stock solution, and then gradually diluted to working concentrations of 1 μM, 100 nM, 10 nM, 1 nM, 10^−1 nM, 10^−2 nM, 10^−3 nM, and H2O.
(§3) 1) Each compound to be tested was mixed with a serum-free medium (containing 0.1% BSA and 0.5 mM IBMX) to obtain a solution at a concentration 2 times the working concentration.
(§4) 2) The cells were digested, suspended in a serum-free medium (containing 0.5 mM IBMX), counted, and placed in a 384-well plate at a density of 1,000 cells/5 μL/well, then 5 μL of the testing compound was added, and the plate was placed in dark for reaction for 30 min.
(§5) 3) After the reaction was completed, a substrate for detecting cAMP was added, and the plate was placed in dark for reaction at the room temperature for 60 min.
(§6) 4) After the reaction was completed, the plate was placed on the Envision2104 multifunctional microplate reader for detection, and the ratio of optical density (OD) values at 665 nm and 615 nm were read out.

[2] = test system: glucose loaded normal mice; assay: Glucose loading test on normal mice after single administration; type: in vivo, Kunming mice; details: for Blood glucose reduction rate (%) / Blood glucose level after glucose loading: 30 nmol/kg single dose; for Blood glucose reduction rate (%): after glucose loading, versus model control group; for Blood glucose level after glucose loading: glucose 2.5 g/kg intragastric 60 min after administration, measured 30 min after loading; for Blood glucose level after glucose loading / Fasting blood glucose level: n=5; for Fasting blood glucose level: normal mice fasted 6 h, 30 nmol/kg group
Method: The hypoglycemic action of each compound of Example 1 was assessed by a glucose loading test on normal mice after single administration.
Method: Kunming mice (male, with a weight of 20-22 g) were acclimated in a barrier environment animal room for 3 days, divided into a blank control group, a model control group, a positive control group, and test compound groups, 5 mice in each group, and fasted for 6 h. Saline was administered to each mouse in the blank control group and the model control group, the compounds and a positive control drug were respectively administered to each mouse in the test compound groups and the positive control group at a dose of 30 nmol/kg, and the positive control drug was semaglutide. 60 min after administration, glucose was intragastrically administered to each mouse in the model control group, the positive control group, and the test compound groups at a dose of 2.5 g/kg (0.01 mL·g^−1 weight), distilled water was administered to each mouse in the blank control group, and blood glucose levels were determined 30 min after glucose loading.

[3] = target: T2, GLP-1R (Homo sapiens, UniProt P43220); assay: GLP-1 receptor-mediated cAMP production in vitro; type: cell-based; details: HEK293 cell line stably expressing GLP-1R
T2 construct: expressed in transfected cells
T2 sequence (P43220 24-463, species assumed): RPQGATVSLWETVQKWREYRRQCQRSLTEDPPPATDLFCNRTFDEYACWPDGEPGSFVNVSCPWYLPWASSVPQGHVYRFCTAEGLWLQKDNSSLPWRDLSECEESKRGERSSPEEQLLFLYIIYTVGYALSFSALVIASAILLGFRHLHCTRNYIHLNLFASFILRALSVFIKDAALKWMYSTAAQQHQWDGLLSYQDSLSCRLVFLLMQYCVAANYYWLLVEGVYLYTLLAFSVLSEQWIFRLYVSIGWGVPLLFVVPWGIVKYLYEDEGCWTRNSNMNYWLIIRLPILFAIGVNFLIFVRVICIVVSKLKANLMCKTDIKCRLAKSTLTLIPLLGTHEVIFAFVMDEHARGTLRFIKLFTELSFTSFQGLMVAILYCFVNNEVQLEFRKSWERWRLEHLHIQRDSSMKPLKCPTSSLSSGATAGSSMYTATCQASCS
Method: as §1, §2, §3, §4, §5, §6

SMILES	EC50 [1]	EC50 [3]	Blood glucose reduction rate (%) [2]	Blood glucose level after glucose loading [2]	Fasting blood glucose level [2]
CCCCCCCCCCCCCCCC(=O)N[C@@H](CCC(=O)NCCCC[C@H](NC(=O)[C@H](C)NC(=O)[C@H](C)NC(=O)[C@H](CCCNC(=N)N)NC(=O)[C@H](CCC(=O)O)NC(=O)[C@H](CCC(=O)O)NC(=O)[C@H](CC(C)C)NC(=O)[C@H](Cc1ccc(O)cc1)NC(=O)[C@H](CCCCN)NC(=O)[C@H](CO)NC(=O)[C@H](Cc1ccc(O)cc1)NC(=O)[C@H](CC(=O)O)NC(=O)[C@H](CO)NC(=O)[C@@H](NC(=O)[C@H](Cc1ccccc1)NC(=O)[C@@H](NC(=O)CNC(=O)[C@H](CCC(N)=O)NC(=O)C(C)(C)NC(=O)[C@@H](N)Cc1c[nH]cn1)[C@@H](C)O)[C@@H](C)O)C(=O)N[C@@H](CCC(=O)O)C(=O)N[C@@H](Cc1ccccc1)C(=O)N[C@H](C(=O)N[C@@H](C)C(=O)N[C@@H](Cc1c[nH]c2ccccc12)C(=O)N[C@@H](CC(C)C)C(=O)N[C@@H](CCC(=O)O)C(=O)N[C@@H](CO)C(=O)NCC(=O)NCC(N)=O)[C@@H](C)CC)C(=O)O [dgc008] (HELM PEPTIDE1{H.[Aib].Q.G.T.F.T.S.D.Y.S.K.Y.L.E.E.R.A.A.K.E.F.I.A.W.L.E.S.G.G.[am]}|PEPTIDE2{[CCCCCCCCCCCCCCCC(=O)[*:2]].[gGlu]}$PEPTIDE1,PEPTIDE2,20:R3-2:R2$$$V2.0; N-terminus assumed)	2.03 nM	0.742 nM	48.70%	8.72 ± 1.99 mmol/L	3.64 ± 1.00 mmol/L
CCCCCCCCCCCCCCCC(=O)N[C@@H](CCC(=O)NCCCC[C@H](NC(=O)[C@H](C)NC(=O)[C@H](C)NC(=O)[C@H](CCCNC(=N)N)NC(=O)[C@H](CCC(=O)O)NC(=O)[C@H](CC(=O)O)NC(=O)[C@H](CC(C)C)NC(=O)[C@H](Cc1ccc(O)cc1)NC(=O)[C@H](CCCCN)NC(=O)[C@H](CO)NC(=O)[C@H](Cc1ccc(O)cc1)NC(=O)[C@H](CC(=O)O)NC(=O)[C@H](CO)NC(=O)[C@@H](NC(=O)[C@H](Cc1ccccc1)NC(=O)[C@@H](NC(=O)CNC(=O)[C@H](CCC(N)=O)NC(=O)[C@H](CO)NC(=O)[C@@H](N)Cc1c[nH]cn1)[C@@H](C)O)[C@@H](C)O)C(=O)N[C@@H](CCC(=O)O)C(=O)N[C@@H](Cc1ccccc1)C(=O)N[C@H](C(=O)N[C@@H](C)C(=O)N[C@@H](Cc1c[nH]c2ccccc12)C(=O)N[C@@H](CC(C)C)C(=O)N[C@@H](CCC(=O)O)C(=O)N[C@@H](C)C(=O)NCC(=O)NCC(N)=O)[C@@H](C)CC)C(=O)O [dgc001] (HELM PEPTIDE1{H.S.Q.G.T.F.T.S.D.Y.S.K.Y.L.D.E.R.A.A.K.E.F.I.A.W.L.E.A.G.G.[am]}|PEPTIDE2{[CCCCCCCCCCCCCCCC(=O)[*:2]].[gGlu]}$PEPTIDE1,PEPTIDE2,20:R3-2:R2$$$V2.0; N-terminus assumed)	0.806 nM	1.13 nM			
CCCCCCCCCCCCCCCC(=O)N[C@@H](CCC(=O)NCCOCCOCC(=O)NCCOCCOCC(=O)NCCCC[C@H](NC(=O)[C@H](C)NC(=O)[C@H](C)NC(=O)[C@H](CCCNC(=N)N)NC(=O)[C@H](CCC(=O)O)NC(=O)[C@H](CCC(=O)O)NC(=O)[C@H](CC(C)C)NC(=O)[C@H](Cc1ccc(O)cc1)NC(=O)[C@H](CCCCN)NC(=O)[C@H](CO)NC(=O)[C@H](Cc1ccc(O)cc1)NC(=O)[C@H](CC(=O)O)NC(=O)[C@H](CO)NC(=O)[C@@H](NC(=O)[C@H](Cc1ccccc1)NC(=O)[C@@H](NC(=O)CNC(=O)[C@H](CCC(N)=O)NC(=O)C(C)(C)NC(=O)[C@@H](N)Cc1c[nH]cn1)[C@@H](C)O)[C@@H](C)O)C(=O)N[C@@H](CCC(=O)O)C(=O)N[C@@H](Cc1ccccc1)C(=O)N[C@H](C(=O)N[C@@H](C)C(=O)N[C@@H](Cc1c[nH]c2ccccc12)C(=O)N[C@@H](CC(C)C)C(=O)N[C@@H](CCC(=O)O)C(=O)N[C@@H](CO)C(=O)NCC(=O)NCC(N)=O)[C@@H](C)CC)C(=O)O [dgc009] (H-H[Aib]QGTFTSDYSKYLEERAAK([AEEA-AEEA-γGlu-Palmitoyl])EFIAWLESGG-NH2; N-terminus assumed)	8.22 nM	0.092 nM			
CC(C)C[C@H](NC(=O)[C@H](Cc1c[nH]c2ccccc12)NC(=O)[C@H](C)NC(=O)[C@@H](NC(=O)[C@H](Cc1ccccc1)NC(=O)[C@H](CCC(=O)O)NC(=O)[C@H](CCCCNC(=O)COCCOCCNC(=O)COCCOCCNC(=O)CC[C@H](NC(=O)CCCCCCCCCCCCCCCCC(=O)O)C(=O)O)NC(=O)[C@H](C)NC(=O)[C@H](C)NC(=O)[C@H](CCCNC(=N)N)NC(=O)[C@H](CCC(=O)O)NC(=O)[C@H](CCC(=O)O)NC(=O)[C@H](CC(C)C)NC(=O)[C@H](Cc1ccc(O)cc1)NC(=O)[C@H](CCCCN)NC(=O)[C@H](CO)NC(=O)[C@H](Cc1ccc(O)cc1)NC(=O)[C@H](CC(=O)O)NC(=O)[C@H](CO)NC(=O)[C@@H](NC(=O)[C@H](Cc1ccccc1)NC(=O)[C@@H](NC(=O)CNC(=O)[C@H](CCC(N)=O)NC(=O)[C@@H](CO)NC(=O)[C@@H](N)Cc1c[nH]cn1)[C@@H](C)O)[C@@H](C)O)C(C)C)C(=O)N[C@@H](CCC(=O)O)C(=O)NCC(=O)NCC(N)=O [dgc012] (H-H[dS]QGTFTSDYSKYLEERAAK([AEEA-AEEA-γGlu-C18 diacid])EFVAWLEGG-NH2; N-terminus assumed)	2.17 nM	0.044 nM			

More lines, main results first:

EC50 [1]	EC50 [3]	SMILES	Blood glucose reduction rate (%) [2]	Blood glucose level after glucose loading [2]	Fasting blood glucose level [2]
1.99 nM	0.319 nM	CCCCCCCCCCCCCCCC(=O)N[C@@H](CCC(=O)N[C@@H](CCC(=O)NCCCC[C@H](NC(=O)[C@H](C)NC(=O)[C@H](C)NC(=O)[C@H](CCCNC(=N)N)NC(=O)[C@H](CCC(=O)O)NC(=O)[C@H](CC(=O)O)NC(=O)[C@H](CC(C)C)NC(=O)[C@H](Cc1ccc(O)cc1)NC(=O)[C@H](CCCCN)NC(=O)[C@H](CO)NC(=O)[C@H](Cc1ccc(O)cc1)NC(=O)[C@H](CC(=O)O)NC(=O)[C@H](CO)NC(=O)[C@@H](NC(=O)[C@H](Cc1ccccc1)NC(=O)[C@@H](NC(=O)CNC(=O)[C@H](CCC(N)=O)NC(=O)C(C)(C)NC(=O)[C@@H](N)Cc1c[nH]cn1)[C@@H](C)O)[C@@H](C)O)C(=O)N[C@@H](CCC(=O)O)C(=O)N[C@@H](Cc1ccccc1)C(=O)N[C@H](C(=O)N[C@@H](C)C(=O)N[C@@H](Cc1c[nH]c2ccccc12)C(=O)N[C@@H](CC(C)C)C(=O)N[C@@H](CCC(=O)O)C(=O)NCC(=O)NCC(N)=O)[C@@H](C)CC)C(=O)O)C(=O)O [dgc013] (HELM PEPTIDE1{H.[Aib].Q.G.T.F.T.S.D.Y.S.K.Y.L.D.E.R.A.A.K.E.F.I.A.W.L.E.G.G.[am]}|PEPTIDE2{[CCCCCCCCCCCCCCCC(=O)[*:2]].[gGlu].[gGlu]}$PEPTIDE1,PEPTIDE2,20:R3-3:R2$$$V2.0; N-terminus assumed)	45.53%	9.26 ± 1.76 mmol/L	3.92 ± 0.51 mmol/L
1.3 nM	0.401 nM	CCCCCCCCCCCCCCCC(=O)N[C@@H](CCC(=O)NCCCC[C@H](NC(=O)[C@H](C)NC(=O)[C@H](C)NC(=O)[C@H](CCCNC(=N)N)NC(=O)[C@H](CCC(=O)O)NC(=O)[C@H](CC(=O)O)NC(=O)[C@H](CC(C)C)NC(=O)[C@H](Cc1ccc(O)cc1)NC(=O)[C@H](CCCCN)NC(=O)[C@H](CO)NC(=O)[C@H](Cc1ccc(O)cc1)NC(=O)[C@H](CC(=O)O)NC(=O)[C@H](CO)NC(=O)[C@@H](NC(=O)[C@H](Cc1ccccc1)NC(=O)[C@@H](NC(=O)CNC(=O)[C@H](CCC(N)=O)NC(=O)C(C)(C)NC(=O)[C@@H](N)Cc1c[nH]cn1)[C@@H](C)O)[C@@H](C)O)C(=O)N[C@@H](CCC(=O)O)C(=O)N[C@@H](Cc1ccccc1)C(=O)N[C@H](C(=O)N[C@@H](C)C(=O)N[C@@H](Cc1c[nH]c2ccccc12)C(=O)N[C@@H](CC(C)C)C(=O)N[C@@H](CCC(=O)O)C(=O)NCC(=O)N[C@@H](CCC(=O)O)C(=O)NCC(N)=O)[C@@H](C)CC)C(=O)O [dgc018] (HELM PEPTIDE1{H.[Aib].Q.G.T.F.T.S.D.Y.S.K.Y.L.D.E.R.A.A.K.E.F.I.A.W.L.E.G.E.G.[am]}|PEPTIDE2{[CCCCCCCCCCCCCCCC(=O)[*:2]].[gGlu]}$PEPTIDE1,PEPTIDE2,20:R3-2:R2$$$V2.0; N-terminus assumed)			
